pEC50: −log10 of the molar value.
Legend:
Assay type in all cases: cell-based
human PAC1 receptor = biological target: T1, human PAC1 receptor (Homo sapiens, UniProt P41586); test: cAMP stimulation in CHO cells expressing PAC1; conditions: for Emax: CHO
T1 construct: expressed in transfected cells; host or cells: CHO cells (G418 selection)
T1 sequence (P41586 21-468): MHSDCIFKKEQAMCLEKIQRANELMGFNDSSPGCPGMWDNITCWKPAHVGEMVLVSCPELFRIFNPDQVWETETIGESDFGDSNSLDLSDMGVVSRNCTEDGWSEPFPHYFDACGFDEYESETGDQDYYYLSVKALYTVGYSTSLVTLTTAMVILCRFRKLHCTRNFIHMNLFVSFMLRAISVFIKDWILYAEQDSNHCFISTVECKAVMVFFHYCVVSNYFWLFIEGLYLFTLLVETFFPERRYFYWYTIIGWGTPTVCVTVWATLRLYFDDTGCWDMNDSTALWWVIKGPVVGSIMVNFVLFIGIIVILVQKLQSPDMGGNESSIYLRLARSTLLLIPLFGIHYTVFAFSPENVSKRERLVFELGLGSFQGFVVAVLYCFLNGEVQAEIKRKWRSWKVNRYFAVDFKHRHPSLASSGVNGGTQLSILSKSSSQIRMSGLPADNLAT
Procedure, shortened: (§1)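 Serum-starved CHO cells expressing human receptors were pre-treated 20 min with 500 μM IBMX, then exposed to agonist concentration curves for 10 min in 500 μM IBMX. cAMP quantified by competition with bovine PKA and ^3H-cAMP (1 h, room temperature), scintillation read.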

human VPAC1 receptor = biological target: T2, human VPAC1 receptor (Homo sapiens, UniProt P32241); test: cAMP stimulation in CHO cells expressing VPAC1; conditions: for Emax: CHO, read-out: VPAC1 Emax; for Receptor selectivity ratio VPAC1/PAC1: ratio of cAMP EC50 values; for pEC50: read-out: VPAC1 EC50
T2 construct: expressed in transfected cells; host or cells: CHO cells (G418 selection)
T2 sequence (P32241 31-457): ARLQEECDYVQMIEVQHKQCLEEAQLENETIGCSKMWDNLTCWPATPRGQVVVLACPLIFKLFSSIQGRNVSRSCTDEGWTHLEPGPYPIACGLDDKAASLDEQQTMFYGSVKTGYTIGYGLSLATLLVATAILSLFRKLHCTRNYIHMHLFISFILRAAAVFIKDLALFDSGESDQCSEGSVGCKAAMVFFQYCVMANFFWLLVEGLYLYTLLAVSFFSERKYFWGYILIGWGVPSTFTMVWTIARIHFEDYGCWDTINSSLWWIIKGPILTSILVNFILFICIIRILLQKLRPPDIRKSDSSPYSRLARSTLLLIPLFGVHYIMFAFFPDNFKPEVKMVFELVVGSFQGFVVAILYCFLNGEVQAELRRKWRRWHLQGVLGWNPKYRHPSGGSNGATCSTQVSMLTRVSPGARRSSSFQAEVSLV

human VPAC2 receptor = biological target: T3, human VPAC2 receptor (Homo sapiens, UniProt P41587); test: cAMP stimulation in CHO cells expressing VPAC2; conditions: for Emax: CHO; for Receptor selectivity ratio VPAC2/PAC1 / Receptor selectivity ratio VPAC2/VPAC1: ratio of cAMP EC50 values
T3 construct: expressed in transfected cells; host or cells: CHO cells (G418 selection)
T3 sequence (P41587 24-438): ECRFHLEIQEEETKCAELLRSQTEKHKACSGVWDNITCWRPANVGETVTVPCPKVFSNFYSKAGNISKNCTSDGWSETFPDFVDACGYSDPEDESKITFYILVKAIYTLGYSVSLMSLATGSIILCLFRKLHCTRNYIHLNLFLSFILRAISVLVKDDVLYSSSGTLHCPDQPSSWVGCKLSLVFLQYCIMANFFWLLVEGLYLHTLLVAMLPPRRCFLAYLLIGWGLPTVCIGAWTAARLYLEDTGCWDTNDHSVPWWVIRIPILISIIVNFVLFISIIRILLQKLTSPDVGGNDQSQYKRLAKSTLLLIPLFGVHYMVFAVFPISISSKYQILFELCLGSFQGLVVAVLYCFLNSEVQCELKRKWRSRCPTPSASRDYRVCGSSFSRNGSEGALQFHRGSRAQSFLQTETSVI
Procedure, shortened: as §1

SMILES	pEC50 (human PAC1 receptor)	Emax (human PAC1 receptor) [%]	Emax (human VPAC1 receptor) [%]	Receptor selectivity ratio VPAC1/PAC1 (human VPAC1 receptor)	pEC50 (human VPAC1 receptor)	pEC50 (human VPAC2 receptor)	Emax (human VPAC2 receptor) [%]	Receptor selectivity ratio VPAC2/PAC1 (human VPAC2 receptor)	Receptor selectivity ratio VPAC2/VPAC1 (human VPAC2 receptor)	Selectivity for VPAC1 over PAC1 (human VPAC1 receptor; from cAMP EC50 values) [fold]
CCC[C@H](NC(=O)[C@H](CCC(N)=O)NC(=O)[C@H](CCCCN)NC(=O)[C@H](CCCNC(=N)N)NC(=O)[C@H](Cc1ccc(O)cc1)NC(=O)[C@H](CCCNC(=N)N)NC(=O)[C@H](CO)NC(=O)[C@H](Cc1ccc(O)cc1)NC(=O)[C@H](CO)NC(=O)[C@H](CC(=O)O)NC(=O)[C@@H](NC(=O)[C@H](Cc1ccccc1)NC(=O)[C@@H](NC(=O)CNC(=O)[C@H](CC(=O)O)NC(=O)[C@@H](CO)NC(=O)[C@@H](N)Cc1c[nH]cn1)C(C)(C)C)[C@@H](C)O)C(=O)N[C@@H](C)C(=O)N[C@H](C(=O)N[C@@H](CCCCN)C(=O)N[C@@H](CCCCN)C(=O)N[C@@H](Cc1ccc(O)cc1)C(=O)N[C@@H](CC(C)C)C(=O)N[C@@H](C)C(=O)N[C@@H](C)C(=O)N[C@H](C(=O)N[C@@H](CC(C)C)C(=O)N[C@@H](CO[C@@H]1O[C@H](CO)[C@@H](O)[C@H](O)[C@H]1O)C(N)=O)C(C)C)C(C)C [CRA3015]	6.35	72	104	0.27	6.92	6.06	92	1.93	7.22	–
CCC[C@H](NC(=O)[C@H](CCC(N)=O)NC(=O)[C@H](CCCCN)NC(=O)[C@H](CCCNC(=N)N)NC(=O)[C@H](Cc1ccc(O)cc1)NC(=O)[C@H](CCCNC(=N)N)NC(=O)[C@H](CO)NC(=O)[C@H](Cc1ccc(O)cc1)NC(=O)[C@H](CO)NC(=O)[C@H](CC(=O)O)NC(=O)[C@@H](NC(=O)[C@H](Cc1ccccc1)NC(=O)[C@@H](NC(=O)CNC(=O)[C@H](CC(=O)O)NC(=O)[C@@H](CO)NC(=O)[C@H](Cc1c[nH]cn1)NC(C)=O)[C@@H](C)CC)[C@@H](C)O)C(=O)N[C@@H](C)C(=O)N[C@H](C(=O)N[C@@H](CCCCN)C(=O)N[C@@H](CCCCN)C(=O)N[C@@H](Cc1ccc(O)cc1)C(=O)N[C@@H](CC(C)C)C(=O)N[C@@H](C)C(=O)N[C@@H](C)C(=O)N[C@H](C(=O)N[C@@H](CC(C)C)C(=O)N[C@@H](CO[C@@H]1O[C@H](CO)[C@@H](O)[C@H](O)[C@H]1O)C(N)=O)C(C)C)C(C)C [Ac-CRA3000]	–	90	94	–	–	–	106	–	–	–
CCCC[C@H](NC(=O)CN(C)C(=O)[C@H](CC(=O)O)NC(=O)[C@@H](CO)NC(=O)[C@@H](N)Cc1c[nH]cn1)C(=O)N[C@@H](Cc1ccccc1)C(=O)N[C@H](C(=O)N[C@@H](CC(=O)O)C(=O)N[C@@H](CO)C(=O)N[C@@H](Cc1ccc(O)cc1)C(=O)N[C@@H](CO)C(=O)N[C@@H](CCCNC(=N)N)C(=O)N[C@@H](Cc1ccc(O)cc1)C(=O)N[C@@H](CCCNC(=N)N)C(=O)N[C@@H](CCCCN)C(=O)N[C@@H](CCC(N)=O)C(=O)N[C@@H](CCC)C(=O)N[C@@H](C)C(=O)N[C@H](C(=O)N[C@@H](CCCCN)C(=O)N[C@@H](CCCCN)C(=O)N[C@@H](Cc1ccc(O)cc1)C(=O)N[C@@H](CC(C)C)C(=O)N[C@@H](C)C(=O)N[C@@H](C)C(=O)N[C@H](C(=O)N[C@@H](CC(C)C)C(=O)N[C@@H](CO[C@@H]1O[C@H](CO)[C@@H](O)[C@H](O)[C@H]1O)C(N)=O)C(C)C)C(C)C)[C@@H](C)O [CRA3018]	–	85	104	–	–	–	112	–	–	–
CCC[C@H](NC(=O)[C@H](CCC(N)=O)NC(=O)[C@H](CCCCN)NC(=O)[C@H](CCCNC(=N)N)NC(=O)[C@H](Cc1ccc(O)cc1)NC(=O)[C@H](CCCNC(=N)N)NC(=O)[C@H](CO)NC(=O)[C@H](Cc1ccc(O)cc1)NC(=O)[C@H](CO)NC(=O)[C@H](CC(=O)O)NC(=O)[C@@H](NC(=O)[C@H](Cc1ccccc1)NC(=O)[C@@H](NC(=O)C(C)(C)NC(=O)[C@H](CC(=O)O)NC(=O)[C@@H](CO)NC(=O)[C@@H](N)Cc1c[nH]cn1)[C@@H](C)CC)[C@@H](C)O)C(=O)N[C@@H](C)C(=O)N[C@H](C(=O)N[C@@H](CCCCN)C(=O)N[C@@H](CCCCN)C(=O)N[C@@H](Cc1ccc(O)cc1)C(=O)N[C@@H](CC(C)C)C(=O)N[C@@H](C)C(=O)N[C@@H](C)C(=O)N[C@H](C(=O)N[C@@H](CC(C)C)C(=O)N[C@@H](CO[C@@H]1O[C@H](CO)[C@@H](O)[C@H](O)[C@H]1O)C(N)=O)C(C)C)C(C)C [CRA3011]	6.11	68	91	0.04	7.47	6.65	99	0.28	6.52	~23
CCC[C@H](NC(=O)[C@H](CCC(N)=O)NC(=O)[C@H](CCCCN)NC(=O)[C@H](CCCNC(=N)N)NC(=O)[C@H](Cc1ccc(O)cc1)NC(=O)[C@H](CCCNC(=N)N)NC(=O)[C@H](CO)NC(=O)[C@H](Cc1ccc(O)cc1)NC(=O)[C@H](CO)NC(=O)[C@H](CC(=O)O)NC(=O)[C@@H](NC(=O)[C@H](Cc1ccccc1)NC(=O)[C@@H](NC(=O)[C@@H](C)NC(=O)[C@H](CC(=O)O)NC(=O)[C@@H](CO)NC(=O)[C@H](Cc1c[nH]cn1)NC(C)=O)[C@@H](C)CC)[C@@H](C)O)C(=O)N[C@@H](C)C(=O)N[C@H](C(=O)N[C@@H](CCCCN)C(=O)N[C@@H](CCCCN)C(=O)N[C@@H](Cc1ccc(O)cc1)C(=O)N[C@@H](CC(C)C)C(=O)N[C@@H](C)C(=O)N[C@@H](C)C(=O)N[C@H](C(=O)N[C@@H](CC(C)C)C(=O)N[C@@H](CO[C@@H]1O[C@H](CO)[C@@H](O)[C@H](O)[C@H]1O)C(N)=O)C(C)C)C(C)C [Ac-CRA3021]	–	96	111	–	–	–	93	–	–	–
CCC[C@H](NC(=O)[C@H](CCC(N)=O)NC(=O)[C@H](CCCCN)NC(=O)[C@H](CCCNC(=N)N)NC(=O)[C@H](Cc1ccc(O)cc1)NC(=O)[C@H](CCCNC(=N)N)NC(=O)[C@H](CO)NC(=O)[C@H](Cc1ccc(O)cc1)NC(=O)[C@H](CO)NC(=O)[C@H](CC(=O)O)NC(=O)[C@@H](NC(=O)[C@H](Cc1ccccc1)NC(=O)[C@@H](NC(=O)CNC(=O)[C@H](CC(=O)O)NC(=O)[C@@H](CO)NC(=O)[C@@H](N)Cc1c[nH]cn1)[C@@H](C)CC)[C@@H](C)O)C(=O)N[C@@H](C)C(=O)N[C@H](C(=O)N[C@@H](CCCCN)C(=O)N[C@@H](CCCCN)C(=O)N[C@@H](Cc1ccc(O)cc1)C(=O)N[C@@H](CC(C)C)C(=O)N[C@@H](C)C(=O)N[C@@H](C)C(=O)N[C@H](C(=O)N[C@@H](CC(C)C)C(=O)N[C@@H](CO[C@@H]1O[C@H](CO)[C@@H](O[C@@H]2O[C@H](CO)[C@H](O)[C@H](O)[C@H]2O)[C@H](O)[C@H]1O)C(N)=O)C(C)C)C(C)C [CRA 3000-Lac]	–	92	96	–	–	–	116	–	–	–
CCC[C@H](NC(=O)[C@H](CCC(N)=O)NC(=O)[C@H](CCCCN)NC(=O)[C@H](CCCNC(=N)N)NC(=O)[C@H](Cc1ccc(O)cc1)NC(=O)[C@H](CCCNC(=N)N)NC(=O)[C@H](CO)NC(=O)[C@H](Cc1ccc(O)cc1)NC(=O)[C@H](CO)NC(=O)[C@H](CC(=O)O)NC(=O)[C@@H](NC(=O)[C@H](Cc1ccccc1)NC(=O)[C@@H](NC(=O)CNC(=O)[C@H](CC(=O)O)NC(=O)[C@@H](CO)NC(=O)[C@@H](N)Cc1c[nH]cn1)[C@@H](C)CC)[C@@H](C)O)C(=O)N[C@@H](C)C(=O)N[C@H](C(=O)N[C@@H](CCCCN)C(=O)N[C@@H](CCCCN)C(=O)N[C@@H](Cc1ccc(O)cc1)C(=O)N[C@@H](CC(C)C)C(=O)N[C@@H](C)C(=O)N[C@@H](C)C(=O)N[C@@H](CO[C@@H]1O[C@H](CO)[C@@H](O)[C@H](O)[C@H]1O)C(=O)N[C@@H](CC(C)C)C(N)=O)C(C)C [CRA3002]	< 6.60	-79	93	–	8.23	< 5.60	–	–	–	–

From publication PMC8887546, “Design and Synthesis of Brain Penetrant Glycopeptide Analogues of PACAP With Neuroprotective Potential for Traumatic Brain Injury and Parkinsonism” (Frontiers in drug discovery, 2022)
